Measurements from patent publication US20240239861A1, “GLUCAGON-RECEPTOR SELECTIVE POLYPEPTIDES AND METHODS OF USE THEREOF” (i2O Therapeutics, Inc., priority 2016, published 2024).
Where a SMILES comes first, the peptide text is derived from it. [ ]: non-standard residue; d: D form. Aib = CC(C)(N)C(=O)O

These molecules were tested against human GLP-1R (Homo sapiens, UniProt P43220) (assay: Peptide-receptor mediated cAMP accumulation (LANCE Ultra cAMP) in CHO-K1 cells transfected with human GLP-1R). Settings: hGLP1 pEC50 (cAMP mean (n = 3): 11 point curve starting at 1 nM, Table 3).
Chain of human GLP-1R (P43220 24-463): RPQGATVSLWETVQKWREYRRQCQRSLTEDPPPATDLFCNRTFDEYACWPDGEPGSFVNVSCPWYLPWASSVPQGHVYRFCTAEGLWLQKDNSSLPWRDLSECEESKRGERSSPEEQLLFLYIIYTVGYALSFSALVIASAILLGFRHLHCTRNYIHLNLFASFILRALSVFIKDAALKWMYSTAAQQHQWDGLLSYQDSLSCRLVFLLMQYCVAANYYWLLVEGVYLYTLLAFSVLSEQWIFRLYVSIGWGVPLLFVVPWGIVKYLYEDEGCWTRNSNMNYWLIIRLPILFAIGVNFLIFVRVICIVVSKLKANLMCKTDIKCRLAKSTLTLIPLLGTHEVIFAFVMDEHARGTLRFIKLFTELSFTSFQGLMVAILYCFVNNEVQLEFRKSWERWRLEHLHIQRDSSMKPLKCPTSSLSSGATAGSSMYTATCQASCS
Assay type: cell-based

SMILES | EC50
CC(C)C[C@H](NC(=O)[C@H](Cc1c[nH]c2ccccc12)NC(=O)[C@H](CCCCN)NC(=O)[C@H](CO)NC(=O)[C@H](Cc1ccc(O)cc1)NC(=O)[C@H](CC(=O)O)NC(=O)[C@H](CO)NC(=O)[C@@H](NC(=O)[C@H](Cc1ccccc1)NC(=O)[C@@H](NC(=O)CNC(=O)[C@H](Cc1c[nH]cn1)NC(=O)[C@H](CO)NC(=O)[C@@H](N)Cc1ccc(O)cc1)[C@@H](C)O)[C@@H](C)O)C(=O)N[C@@H](CC(=O)O)C(=O)N[C@@H](CO)C(=O)N[C@@H](C)C(=O)N[C@@H](CCCNC(=N)N)C(=O)N[C@@H](C)C(=O)N[C@@H](CCC(N)=O)C(=O)N[C@@H](CCC(=O)O)C(=O)N[C@@H](Cc1ccccc1)C(=O)N[C@H](C(=O)N[C@@H](CCCCN)C(=O)N[C@@H](Cc1c[nH]c2ccccc12)C(=O)N[C@@H](CC(C)C)C(=O)N[C@@H](CCC(=O)O)C(=O)N[C@@H](CC(=O)O)C(=O)N[C@@H](CCC(=O)O)C(=O)N1CCC[C@H]1C(=O)N[C@@H](CO)C(=O)N[C@@H](CO)C(=O)NCC(=O)N[C@@H](C)C(=O)N1CCC[C@H]1C(=O)N1CCC[C@H]1C(=O)N1CCC[C@H]1C(=O)N[C@@H](CO)C(=O)O)C(C)C [Compound A38] (H-YSHGTFTSDYSKWLDSARAQEFVKWLEDEPSSGAPPPS-OH; N-terminus assumed) | > 1 nM
CC[C@H](C)[C@H](NC(=O)[C@@H]1CCCN1C(=O)[C@@H]1CCCN1C(=O)[C@H](CCCCN)NC(=O)[C@H](CC(N)=O)NC(=O)[C@H](CCCNC(=N)N)NC(=O)[C@H](CCCCN)NC(=O)[C@H](CCC(=O)O)NC(=O)[C@H](CC(=O)O)NC(=O)[C@H](CCC(=O)O)NC(=O)[C@H](CC(C)C)NC(=O)[C@H](Cc1c[nH]c2ccccc12)NC(=O)C(C)(C)NC(=O)[C@@H](NC(=O)[C@H](Cc1ccccc1)NC(=O)[C@H](CCC(=O)O)NC(=O)[C@H](CCC(N)=O)NC(=O)[C@H](C)NC(=O)[C@H](CCCNC(=N)N)NC(=O)[C@H](CCCCN)NC(=O)C(C)(C)NC(=O)[C@H](CC(=O)O)NC(=O)[C@H](CC(C)C)NC(=O)[C@H](Cc1ccc(O)cc1)NC(=O)[C@H](CCCCN)NC(=O)[C@H](CO)NC(=O)[C@H](Cc1ccc(O)cc1)NC(=O)[C@H](CC(=O)O)NC(=O)[C@H](CO)NC(=O)[C@@H](NC(=O)[C@H](Cc1ccccc1)NC(=O)[C@@H](NC(=O)CNC(=O)[C@H](Cc1c[nH]cn1)NC(=O)[C@H](CO)NC(=O)[C@@H](N)Cc1ccc(O)cc1)[C@@H](C)O)[C@@H](C)O)C(C)C)C(=O)N[C@@H](C)C(=O)O [Compound A46] (H-YSHGTFTSDYSKYLD[Aib]KRAQEFV[Aib]WLEDEKRNKPPIA-OH; N-terminus assumed) | > 1 nM
CC(C)C[C@H](NC(=O)[C@H](Cc1ccc(O)cc1)NC(=O)[C@H](CCCCN)NC(=O)[C@H](CO)NC(=O)[C@H](Cc1ccc(O)cc1)NC(=O)[C@H](CC(=O)O)NC(=O)[C@H](CO)NC(=O)[C@@H](NC(=O)[C@H](Cc1ccccc1)NC(=O)[C@@H](NC(=O)CNC(=O)[C@H](Cc1c[nH]cn1)NC(=O)[C@H](CO)NC(=O)[C@@H](N)Cc1ccc(O)cc1)[C@@H](C)O)[C@@H](C)O)C(=O)N[C@@H](CC(=O)O)C(=O)NC(C)(C)C(=O)N[C@@H](CCCCN)C(=O)N[C@@H](CCCNC(=N)N)C(=O)N[C@@H](C)C(=O)N[C@@H](CCC(N)=O)C(=O)N[C@@H](CCC(=O)O)C(=O)N[C@@H](Cc1ccccc1)C(=O)N[C@H](C(=O)NC(C)(C)C(=O)N[C@@H](Cc1c[nH]c2ccccc12)C(=O)N[C@@H](CC(C)C)C(=O)N[C@@H](CCC(=O)O)C(=O)N[C@@H](CC(=O)O)C(=O)N[C@@H](CCC(=O)O)C(=O)N1CCC[C@H]1C(=O)N[C@@H](CCCNC(=N)N)C(=O)N[C@@H](CC(N)=O)C(=O)N[C@@H](CCCCN)C(=O)N[C@@H](CC(N)=O)C(=O)N[C@@H](CC(N)=O)C(=O)N1CCC[C@H]1C(=O)N1CCC[C@H]1C(=O)N[C@@H](CO)C(=O)O)C(C)C [Compound A49] (H-YSHGTFTSDYSKYLD[Aib]KRAQEFV[Aib]WLEDEPRNKNNPPS-OH; N-terminus assumed) | > 1 nM
CC(C)C[C@H](NC(=O)[C@H](CC(=O)O)NC(=O)[C@H](CC(C)C)NC(=O)[C@H](Cc1ccc(O)cc1)NC(=O)[C@H](CCCCN)NC(=O)[C@H](CO)NC(=O)[C@H](Cc1ccc(O)cc1)NC(=O)[C@H](CC(=O)O)NC(=O)[C@H](CO)NC(=O)[C@@H](NC(=O)[C@H](Cc1ccccc1)NC(=O)[C@@H](NC(=O)CNC(=O)[C@H](Cc1c[nH]cn1)NC(=O)[C@H](CO)NC(=O)[C@@H](N)Cc1ccc(O)cc1)[C@@H](C)O)[C@@H](C)O)C(=O)N[C@@H](CCCCN)C(=O)N[C@@H](CCCNC(=N)N)C(=O)N[C@@H](C)C(=O)N[C@@H](CCC(N)=O)C(=O)N[C@@H](CCC(=O)O)C(=O)N[C@@H](Cc1ccccc1)C(=O)N[C@H](C(=O)NC(C)(C)C(=O)N[C@@H](Cc1c[nH]c2ccccc12)C(=O)N[C@@H](CC(C)C)C(=O)N[C@@H](CCC(=O)O)C(=O)N[C@@H](CC(=O)O)C(=O)N[C@@H](CCC(=O)O)C(=O)N1CCC[C@H]1C(=O)N[C@@H](CO)C(=O)N[C@@H](CO)C(=O)NCC(=O)N[C@@H](C)C(=O)N1CCC[C@H]1C(=O)N1CCC[C@H]1C(=O)N1CCC[C@H]1C(=O)N[C@@H](CO)C(=O)O)C(C)C [Compound A51] (H-YSHGTFTSDYSKYLDLKRAQEFV[Aib]WLEDEPSSGAPPPS-OH; N-terminus assumed) | > 1 nM
CC(C)C[C@H](NC(=O)[C@H](Cc1ccc(O)cc1)NC(=O)[C@H](CCCCN)NC(=O)[C@H](CO)NC(=O)[C@H](Cc1ccc(O)cc1)NC(=O)[C@H](CC(=O)O)NC(=O)[C@H](CO)NC(=O)[C@@H](NC(=O)[C@H](Cc1ccccc1)NC(=O)[C@@H](NC(=O)CNC(=O)[C@H](Cc1c[nH]cn1)NC(=O)[C@H](CO)NC(=O)[C@@H](N)Cc1ccc(O)cc1)[C@@H](C)O)[C@@H](C)O)C(=O)N[C@@H](CC(=O)O)C(=O)NC(C)(C)C(=O)N[C@@H](CCCCN)C(=O)N[C@@H](CCCNC(=N)N)C(=O)N[C@@H](C)C(=O)N[C@@H](CCC(N)=O)C(=O)N[C@@H](CCC(=O)O)C(=O)N[C@@H](Cc1ccccc1)C(=O)N[C@H](C(=O)NC(C)(C)C(=O)N[C@@H](Cc1c[nH]c2ccccc12)C(=O)N[C@@H](CC(C)C)C(=O)N[C@@H](CCC(=O)O)C(=O)N[C@@H](CC(=O)O)C(=O)N[C@@H](CCC(=O)O)C(=O)N1CCC[C@H]1C(=O)N[C@@H](CO)C(=O)N[C@@H](CO)C(=O)N[C@@H](CCCCN)C(=O)N[C@@H](CO)C(=O)N1CCC[C@H]1C(=O)N1CCC[C@H]1C(=O)N1CCC[C@H]1C(=O)N[C@@H](CO)C(=O)O)C(C)C [Compound A55] (H-YSHGTFTSDYSKYLD[Aib]KRAQEFV[Aib]WLEDEPSSKSPPPS-OH; N-terminus assumed) | > 1 nM
CC(C)C[C@H](NC(=O)[C@H](Cc1ccc(O)cc1)NC(=O)[C@H](CCCCN)NC(=O)[C@H](CO)NC(=O)[C@H](Cc1ccc(O)cc1)NC(=O)[C@H](CC(=O)O)NC(=O)[C@H](CO)NC(=O)[C@@H](NC(=O)[C@H](Cc1ccccc1)NC(=O)[C@@H](NC(=O)CNC(=O)[C@H](Cc1c[nH]cn1)NC(=O)[C@H](CO)NC(=O)[C@@H](N)Cc1ccc(O)cc1)[C@@H](C)O)[C@@H](C)O)C(=O)N[C@@H](CC(=O)O)C(=O)NC(C)(C)C(=O)N[C@@H](CCCCN)C(=O)N[C@@H](CCCNC(=N)N)C(=O)N[C@@H](C)C(=O)N[C@@H](CCC(N)=O)C(=O)N[C@@H](CCC(=O)O)C(=O)N[C@@H](Cc1ccccc1)C(=O)N[C@H](C(=O)NC(C)(C)C(=O)N[C@@H](Cc1c[nH]c2ccccc12)C(=O)N[C@@H](CC(C)C)C(=O)N[C@@H](CCC(=O)O)C(=O)N[C@@H](CC(=O)O)C(=O)N[C@@H](CCC(=O)O)C(=O)N1CCC[C@H]1C(=O)N[C@@H](CO)C(=O)N[C@@H](CO)C(=O)N[C@@H](CCCCN)C(=O)N[C@@H](CCC(N)=O)C(=O)N1CCC[C@H]1C(=O)N1CCC[C@H]1C(=O)N1CCC[C@H]1C(=O)N[C@@H](CO)C(=O)O)C(C)C [Compound A59] (H-YSHGTFTSDYSKYLD[Aib]KRAQEFV[Aib]WLEDEPSSKQPPPS-OH; N-terminus assumed) | > 1 nM
CC(C)C[C@H](NC(=O)[C@H](Cc1ccc(O)cc1)NC(=O)[C@H](CCCCN)NC(=O)[C@H](CO)NC(=O)[C@H](Cc1ccc(O)cc1)NC(=O)[C@H](CC(=O)O)NC(=O)[C@H](CO)NC(=O)[C@@H](NC(=O)[C@H](Cc1ccccc1)NC(=O)[C@@H](NC(=O)CNC(=O)[C@H](Cc1c[nH]cn1)NC(=O)[C@H](CO)NC(=O)[C@@H](N)Cc1ccc(O)cc1)[C@@H](C)O)[C@@H](C)O)C(=O)N[C@@H](CC(=O)O)C(=O)NC(C)(C)C(=O)N[C@@H](CCCCN)C(=O)N[C@@H](CCCNC(=N)N)C(=O)N[C@@H](C)C(=O)N[C@@H](CCC(N)=O)C(=O)N[C@@H](CCC(=O)O)C(=O)N[C@@H](Cc1ccccc1)C(=O)N[C@H](C(=O)NC(C)(C)C(=O)N[C@@H](Cc1c[nH]c2ccccc12)C(=O)N[C@@H](CC(C)C)C(=O)N[C@@H](CCC(=O)O)C(=O)N[C@@H](CC(=O)O)C(=O)N[C@@H](CCC(=O)O)C(=O)N1CCC[C@H]1C(=O)N[C@@H](CCCCN)C(=O)N[C@@H](CO)C(=O)N[C@@H](CCCCN)C(=O)N[C@@H](CCC(=O)O)C(=O)N1CCC[C@H]1C(=O)N1CCC[C@H]1C(=O)N1CCC[C@H]1C(=O)N[C@@H](CO)C(N)=O)C(C)C [Compound A65] (H-YSHGTFTSDYSKYLD[Aib]KRAQEFV[Aib]WLEDEPKSKEPPPS-NH2; N-terminus assumed) | > 1 nM
CC(C)C[C@H](NC(=O)[C@H](Cc1ccc(O)cc1)NC(=O)[C@H](CCCCN)NC(=O)[C@H](CO)NC(=O)[C@H](Cc1ccc(O)cc1)NC(=O)[C@H](CC(=O)O)NC(=O)[C@H](CO)NC(=O)[C@@H](NC(=O)[C@H](Cc1ccccc1)NC(=O)[C@@H](NC(=O)CNC(=O)[C@H](Cc1c[nH]cn1)NC(=O)[C@H](CO)NC(=O)[C@@H](N)Cc1ccc(O)cc1)[C@@H](C)O)[C@@H](C)O)C(=O)N[C@@H](CC(=O)O)C(=O)NC(C)(C)C(=O)N[C@@H](CCCCN)C(=O)N[C@@H](CCCNC(=N)N)C(=O)N[C@@H](C)C(=O)N[C@@H](CCC(N)=O)C(=O)N[C@@H](CCC(=O)O)C(=O)N[C@@H](Cc1ccccc1)C(=O)N[C@H](C(=O)NC(C)(C)C(=O)N[C@@H](Cc1c[nH]c2ccccc12)C(=O)N[C@@H](CC(C)C)C(=O)N[C@@H](CCC(=O)O)C(=O)N[C@@H](CC(=O)O)C(=O)N[C@@H](CCC(=O)O)C(=O)N1CCC[C@H]1C(=O)N[C@@H](CCCCN)C(=O)N[C@@H](CO)C(=O)N[C@@H](CCCCN)C(=O)N[C@@H](CO)C(=O)N1CCC[C@H]1C(=O)N1CCC[C@H]1C(=O)N1CCC[C@H]1C(=O)N[C@@H](CO)C(N)=O)C(C)C [Compound A66] (H-YSHGTFTSDYSKYLD[Aib]KRAQEFV[Aib]WLEDEPKSKSPPPS-NH2; N-terminus assumed) | > 1 nM
